Measurements taken from patent US20030229451A1, “Methods and systems for analyzing complex biological systems” (priority 2001, published 2003).

Key:
[1] = system: Arabidopsis thaliana; assay: MOA1 biochemical (metabolite) profiling by LC-MS and GC-MS
[2] = system: Arabidopsis thaliana plants; assay: SOA1 phenotypic analysis of herbicide-treated Arabidopsis (MIC, Tmic, leaf traits); format: in vivo; conditions: for characteristic morphological symptoms: herbicide-treated Arabidopsis; for leafCurling Dev. / leafTwisting Dev. / leafWidth Dev. / matureLeafAnthocyanins Dev. / matureLeafChlorosis Dev. / matureLeafNecrosis Dev. / newLeafAnthocyanins Dev. / newLeafChlorosis Dev. / newLeafNecrosis Dev. / pointedLeaves Dev.: numeric value standardized to mock treated; for tMic Dev.: time to full range of symptoms at MIC, coded

SMILES | Number of Metabolites Changed: (unknown #) ([1]; 20 min, p < 0.05) | Number of Metabolites Changed: Total # ([1]; 20 min, p < 0.05) | Number of Metabolites Changed: (unknown #) ([1]; 20 min, p < 0.11) | Number of Metabolites Changed: Total # ([1]; 20 min, p < 0.11) | Number of Metabolites Changed: (unknown #) ([1]; 1 hr, p < 0.05) | Number of Metabolites Changed: Total # ([1]; 1 hr, p < 0.05) | Number of Metabolites Changed: (unknown #) ([1]; 1 hr, p < 0.11) | Number of Metabolites Changed: Total # ([1]; 1 hr, p < 0.11) | characteristic morphological symptoms [2] | leafCurling Dev. [2] | leafTwisting Dev. [2] | leafWidth Dev. [2] | matureLeafAnthocyanins Dev. [2] | matureLeafChlorosis Dev. [2] | matureLeafNecrosis Dev. [2] | newLeafAnthocyanins Dev. [2] | newLeafChlorosis Dev. [2] | newLeafNecrosis Dev. [2] | pointedLeaves Dev. [2] | tMic Dev. [2]
CCNc1nc(Cl)nc(NC(C)C)n1 [Atrazine] | 4 (4) | 4 (4) | 8 | 11 | 8 | 17 | 24 | 49 | rapid and widespread leaf necrosis | 1 | 0 | −1 | 0 | 1 | 4 | 0 | 1 | 4 | 1 | 1
CC(C)N1C(=O)c2ccccc2NS1(=O)=O [Bentazon] | 3 | 9 | 6 | 10 | 9 | 11 | 14 | 19 | rapid and widespread leaf necrosis | 2 | 0 | −2 | 0 | 2 | 4 | 0 | 2 | 4 | 1 | 1
CC(C)C1(C)N=C(c2ncccc2C(=O)O)NC1=O (stereo not drawn) [Imazapyr] | 2 | 5 | 3 | 9 | 6 | 8 | 10 | 14 | anthocyanin accumulation in the older leaves accompanied by chlorosis of the newly emerging leaves | 0 | 0 | 0 | 2 | 0 | 0 | 0 | 2 | 0 | 0 | 2
